Data taken from the OPERA property sets (Mansouri et al. 2018).

| Compound | melting point [°C] | boiling point [°C] | further results |
| --- | --- | --- | --- |
| O=C(CC(c1ccccc1)c1ccccc1)c1ccccc1 | 96 |  |  |
| C=CC[C@]1(O)CC[C@H]2[C@@H]3CCC4=CCCC[C@@H]4[C@H]3CC[C@@]21C | 80 |  |  |
| COC(Cc1ccccc1)OC |  | 220 |  |
| C[C@@H]1O[C@@H]1P(=O)(O)O | 94 |  |  |
| CCOC(=O)CSCCC1NC(C(=O)O)CS1 (centres undefined) | 142 |  |  |
| FCI |  | 53.4 |  |
| CCCCCCCCCCCCCC(=O)Cl | -1 |  |  |
| COc1cc(NCc2ccc3nc(N)nc(N)c3c2C)cc(OC)c1OC | 216 |  |  |
| O=c1ccoc2ccccc12 | 59 |  |  |
| O=C(O)c1cc(O)nc(O)n1 | 346 |  |  |
| Cc1cn([C@H]2C[C@H](F)[C@@H](CO)O2)c(=O)[nH]c1=O | 177 |  |  |
| CCOC(CC)(OCC)OCC |  | 171 |  |
| CCC(C#N)CC#N (centres undefined) | -41 | 264 | log10 vapour pressure (mmHg): -1.72 |
| Clc1cccc(Oc2ccccc2)c1 |  |  | log10 vapour pressure (mmHg): -2.42 |
| O=C(O)c1ccc2c(c1)C(=O)c1ccccc1C2=O | 291 |  |  |
| COc1ccc(C(=O)Cl)cc1 | 24.5 | 262 |  |
| CO[C@H]1C=CO[C@@]2(C)Oc3c(C)c(O)c4c(O)c(cc(O)c4c3C2=O)NC(=O)C(C)=CC=C[C@H](C)[C@H](O)[C@@H](C)[C@@H](O)[C@@H](C)[C@H](OC(C)=O)[C@@H]1C | 300 |  |  |
| CCCC1CCCCC1C (centres undefined) |  | 176 |  |
| C#CC(=O)OC |  | 104 |  |
| C[C@H](CCC(=O)O)[C@H]1CC[C@H]2[C@@H]3CCC4CCCC[C@]4(C)[C@H]3CC[C@]12C (some centres undefined) | 164 |  |  |
| CCCCC(O)C(=O)O (centres undefined) | 61 | 305 | log10 vapour pressure (mmHg): -5.5 |

| Compound | melting point [°C] | boiling point [°C] | further results |
| --- | --- | --- | --- |
| CC(C)[C@H]1CC[C@]2(C)C[C@H](O)[C@]3(C)CC[C@]12O3 | 114 |  |  |
| C#C[C@H](O)CC |  | 125 |  |
| CCCCOC(=O)c1ccccc1 | -22.4 | 250 | log10 Koc (L/kg): 2.1; log10 vapour pressure (mmHg): -2 |
| CCC(C)C(C)CC(C)C (centres undefined) |  | 156 |  |
| Nc1ccc2ccccc2c1 | 113 | 300 | log10 Henry constant (atm·m³/mol): -7.09; log10 vapour pressure (mmHg): -3.59; ready biodegradability: readily biodegradable |
| CC(=O)C(C)C | -92 | 94.3 | log10 Koa: 3.04; log10 vapour pressure (mmHg): 1.72; ready biodegradability: readily biodegradable |
| CNP(=O)(NC)Oc1ccccc1 | 102 |  | log10 Koc (L/kg): 1.51 |
| CC(C)C1=CC2C(C)CC1C1C(=O)OC(=O)C21 (centres undefined) |  |  | ready biodegradability: not readily biodegradable |
| C=CC(C)(O)CC (centres undefined) |  | 118 |  |
| FCF | -136 | -51.6 | log10 vapour pressure (mmHg): 4.1 |
| CCOP(=S)(Oc1ccc(C#N)cc1)c1ccccc1 (centres undefined) | 83 |  |  |
| O=C(Cl)c1cccc([N+](=O)[O-])c1 | 36 | 276 |  |
| COC1=C[C@H](C)[C@H]2C[C@H]3OC(O)C[C@H]4C(C)=C(OC)C(=O)C([C@@]34C)[C@@]2(C)C1=O (some centres undefined) | 227 |  |  |
| N#C/C=C/c1ccccc1 | 22 | 264 |  |
| CCOc1ccccc1OS(=O)(=O)NC(O)=Nc1nc(OC)cc(OC)n1 | 145 |  |  |
| CC(C)(Cl)CCCl |  | 147 |  |
| CCCCCCOC(=O)CCC | -78 | 208 |  |
| Nc1cc(Cl)c(S(N)(=O)=O)cc1S(N)(=O)=O | 254 |  |  |
| CCCc1ccc(C)cc1 | -63.6 | 183 | log10 vapour pressure (mmHg): 0.043 |
| CC[C@@]12CCCN(CCc3c([nH]c4ccccc34)CC1)C2 | 146 |  |  |
| O=C1CCC(=O)O1 | 119 | 261 | log10 vapour pressure (mmHg): -2.82 |

| Compound | melting point [°C] | boiling point [°C] | further results |
| --- | --- | --- | --- |
| C=CC[Si](Cl)(Cl)CC=C |  |  | log10 vapour pressure (mmHg): 0.445 |
| CC1=C(C)C(=O)C=CC1=O | 55 |  |  |
| Nc1cccc(-n2ccccc2=O)c1 | 183 |  |  |
| N#Cc1ccccc1-c1ccccc1 | 41 |  |  |
| Clc1cccc(Cl)c1N=C1NCCN1 | 130 |  |  |
| CCCCCCCCCCCCCCCCCCOS(=O)(=O)[O][Na] |  |  | ready biodegradability: readily biodegradable |
| COC(=O)C1(S(=O)(=O)c2ccc(Br)cc2)CC1 | 124 |  |  |
| CC=CC(=O)OC(=O)C=CC |  | 247 |  |
| Fc1cccc(C(F)(F)F)c1 | -81.5 | 102 |  |
| CN(C)C(=O)Nc1ccc(Oc2ccc(Cl)cc2)cc1 | 151 |  | log10 Koc (L/kg): 3.55; log10 vapour pressure (mmHg): -8.41; ready biodegradability: not readily biodegradable |
| [C-]#[N+]c1ccccc1 |  |  | log10 vapour pressure (mmHg): 0.381 |
| CC(=O)c1c(O)c(C)c(O)c(Cc2c(O)c3c(c(C(=O)/C=C/c4ccccc4)c2O)OC(C)(C)C=C3)c1O | 212 |  |  |
| CCc1nc(C)c[nH]1 | 50.5 | 294 |  |
| Oc1ccncc1 | 150 |  | ready biodegradability: readily biodegradable |
| SC1CCCC1 |  | 132 | log10 vapour pressure (mmHg): 1.06 |
| CC(C)(C)N=C=O | 85.5 |  |  |
| CCCC(O)C(C)C (centres undefined) |  | 141 | log10 vapour pressure (mmHg): 0.129 |
| CCSC#N | -85.5 | 146 |  |
| CSc1ccc2c(c1)N(CCC1CCCCN1C)c1ccccc1S2 (centres undefined) | 73 |  |  |
| CCC(=O)C(=O)CC | -10 | 130 |  |
| CC(N)CO (centres undefined) |  | 174 |  |
